# Measured values: US20100063047A1 (KALYPSYS, INC., priority 2008, published 2010)
# Target: T1, human H1 (Homo sapiens, UniProt P35367)
# T1 construct: host or cells: CHO-K1, also expressing mitochondrion-targeted aequorin
# Assay: In vitro histamine H1 receptor cell-based aequorin bioluminescence antagonist assay
# Details: not given
# Procedure: In vitro Histamine Receptor Cell-Based Assays
# The cell-based assays utilize an aequorin dependent bioluminescence signal. Doubly-transfected, stable CHO—K1 cell lines expressing human H1 or H4, mitochondrion-targeted aequorin, and (H4 only) human G protein Gα16 are obtained from Perkin-Elmer. Cells are maintained in F12 (Ham's) growth medium, containing 10% (vol./vol.) fetal bovine serum, penicillin (100 IU/mL), streptomycin (0.1 mg/mL), zeocin (0.25 mg/mL) and geneticin (0.40 mg/mL). Cell media components are from Invitrogen, Inc. One day prior to assay, the growth medium is replaced with the same, excluding zeocin and geneticin.
# For assay preparation, growth medium is aspirated, and cells are rinsed with calcium-free, magnesium-free phosphate-buffered saline, followed by two to three minute incubation in Versene (Invitrogen, Inc.) at 37° C. Assay medium (DMEM:F12 [50:50], phenol-red free, containing 1 mg/mL protease-free bovine serum albumin) is added to collect the released cells, which are then centrifuged. The cell pellet is re-suspended in assay medium, centrifuged once more, and re-suspended in assay medium to a final density of 5×10^6 cells/mL. Coelenterazine-h dye (500 μM in ethanol) is added to a final concentration of 5 μM, and mixed immediately. The conical tube containing the cells is then wrapped with foil to protect the light-sensitive dye. The cells are incubated for four hours further at room temperature (approximately 21° C.) with end-over-end rotation to keep them in suspension.
# Just before assay, the dye-loaded cells are diluted to 0.75×10^6 cells/mL (H1 receptor) or 1.5×10^6 cells/mL (H4 receptor) with additional assay medium. Cells are dispensed to 1536 well micro-titer plates at 3 μL/well. To assay receptor antagonism, 60 nl of 100× concentration test compounds in 100% dimethyl sulfoxide (DMSO) are dispensed to the wells, one compound per well, by passive pin transfer, and the plates are incubated for 15 minutes at room temperature. […] The pipette dispenses 3 μL/well of agonist (histamine, at twice the final concentration, where final concentration is a previously determined EC80) in assay medium, with concurrent bioluminescence detection. Agonist activity of test compounds is excluded by separate assays that measure response to test compounds immediately, without added histamine agonist.
# CCD image capture on the Lumilux includes a 5 second baseline read prior to agonist addition, and generally a 40 second read per plate after agonist addition. A decrease in bioluminescence signal (measured either as area-under-the-curve, or maximum signal amplitude minus minimum signal amplitude) correlates with receptor antagonism in a dose dependent manner. The negative control is DMSO lacking any test compound. For antagonist assays, the positive controls are diphenhydramine (2-Diphenylmethoxy-N,N-dimethylethylamine, 10 μM final concentration, H1 receptor) or JNJ7777120 (1-[(5-Chloro-1H-indol-2-yl)carbonyl]-4-methyl-piperazine, 10 μM final concentration, H4 receptor). Efficacy is measured as a percentage of positive control activity.
# T1 sequence (P35367 whole entry): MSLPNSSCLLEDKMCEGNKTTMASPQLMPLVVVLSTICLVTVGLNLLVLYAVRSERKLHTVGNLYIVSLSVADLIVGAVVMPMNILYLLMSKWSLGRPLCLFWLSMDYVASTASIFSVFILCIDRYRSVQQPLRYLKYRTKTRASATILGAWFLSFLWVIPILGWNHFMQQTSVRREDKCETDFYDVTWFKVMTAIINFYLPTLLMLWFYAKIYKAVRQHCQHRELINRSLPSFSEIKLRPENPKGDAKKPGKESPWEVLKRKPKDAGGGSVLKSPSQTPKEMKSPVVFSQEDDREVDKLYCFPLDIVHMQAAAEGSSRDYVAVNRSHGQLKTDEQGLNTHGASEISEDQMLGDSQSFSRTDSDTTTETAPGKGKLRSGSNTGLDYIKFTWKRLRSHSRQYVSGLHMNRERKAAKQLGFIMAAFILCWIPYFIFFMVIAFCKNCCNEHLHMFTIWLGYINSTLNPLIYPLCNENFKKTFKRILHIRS
row,SMILES,EC50 [µM]
1,"COc1ccc(OC)c(CCNc2ncnc3scc(C)c23)c1 [Example 169, N-[2-(2,5-dimethoxyphenyl)ethyl]-5-methylthieno[2,3-d]pyrimidin-4-amine]",> 10

# Same assay, conditions: CHO-K1 cells expressing human H1 and aequorin; histamine at EC80; read-out: H1 Antagonist EC50
row,EC50 [µM],SMILES
1,> 10,"Cc1csc2ncnc(NCc3ccc(Cl)c(Cl)c3)c12 [Example 166, N-[(3,4-dichlorophenyl)methyl]-5-methylthieno[2,3-d]pyrimidin-4-amine]"
2,> 10,"CCN(Cc1ccccc1)c1ncnc2scc(C)c12 [Example 217, N-benzyl-N-ethyl-5-methylthieno[2,3-d]pyrimidin-4-amine]"
3,> 10,"Cc1csc2ncnc(NC3CCCCC3C)c12 (centres unmarked) [Example 91, 5-methyl-N-(2-methylcyclohexyl)thieno[2,3-d]pyrimidin-4-amine]"
4,> 10,"Cc1csc2ncnc(CCCc3ccc(Cl)cc3)c12 [Example 23, 4-(3-(4-chlorophenyl)propyl)-5-methylthieno[2,3-d]pyrimidine]"
5,> 10,"Cc1csc2ncnc(N3CCN(c4ccc(Cl)cc4)CC3)c12 [Example 6, 4-(4-(4-chlorophenyl)piperazin-1-yl)-5-methylthieno[2,3-d]pyrimidine]"
6,> 10,"CCCCN(Cc1ccccc1)c1ncnc2scc(C)c12 [Example 235, N-benzyl-N-butyl-5-methylthieno[2,3-d]pyrimidin-4-amine]"
7,> 10,"COc1ccc(CCNc2ccnc3scc(C)c23)cc1 [Example 37, N-(4-methoxyphenethyl)-3-methylthieno[2,3-b]pyridin-4-amine]"
8,> 10,"Cc1cccc(N2CCN(c3ncnc4scc(C)c34)CC2C)c1 (centres unmarked) [Example 255, 2-methyl-1-(3-methylphenyl)-4-{5-methylthieno[2,3-d]pyrimidin-4-yl}piperazine]"
9,> 10,"Cc1csc2ncnc(N3CCCCC3CO)c12 (centres unmarked) [Example 206, (1-{5-methylthieno[2,3-d]pyrimidin-4-yl}piperidin-2-yl)methanol]"
10,> 10,"Cc1csc2ncnc(NC3CCCC3)c12 [Example 65, N-cyclopentyl-5-methylthieno[2,3-d]pyrimidin-4-amine]"
11,> 10,"CCCC(Nc1ncnc2sccc12)c1ccccc1 (centres unmarked) [Example 307, N-(1-phenylbutyl)thieno[2,3-d]pyrimidin-4-amine]"
12,> 10,"Cc1csc2ncnc(NC(C)CCCC(C)C)c12 (centres unmarked) [Example 108, 5-methyl-N-(6-methylheptan-2-yl)thieno[2,3-d]pyrimidin-4-amine]"
13,> 10,"Cc1csc2ncnc(NCCc3cccc(Cl)c3)c12 [Example 149, N-[2-(3-chlorophenyl)ethyl]-5-methylthieno[2,3-d]pyrimidin-4-amine]"
14,> 10,"Cc1csc2ncnc(N[C@@H](C)c3ccccc3)c12 [Example 96, 5-methyl-N-[(1S)-1-phenylethyl]thieno[2,3-d]pyrimidin-4-amine]"
15,> 10,"Cc1csc2ncnc(NC(CO)C(C)C)c12 (centres unmarked) [Example 82, 3-methyl-2-({5-methylthieno[2,3-d]pyrimidin-4-yl}amino)butan-1-ol]"
16,> 10,"CCOc1ccccc1CNc1ncnc2scc(C)c12 [Example 146, N-[(2-ethoxyphenyl)methyl]-5-methylthieno[2,3-d]pyrimidin-4-amine]"
17,> 10,"COc1ccc(CNc2ncnc3scc(C)c23)cc1 [Example 124, N-[(4-methoxyphenyl)methyl]-5-methylthieno[2,3-d]pyrimidin-4-amine]"
18,> 10,"Cc1csc2ncnc(NCCCNC(=O)OC(C)(C)C)c12 [Example 163, tert-butyl N-[3-({5-methylthieno[2,3-d]pyrimidin-4-yl}amino)propyl]carbamate]"
19,> 10,"Cc1csc2ncnc(NCc3ccc(C(C)(C)C)cc3)c12 [Example 156, N-[(4-tert-butylphenyl)methyl]-5-methylthieno[2,3-d]pyrimidin-4-amine]"
20,> 10,"Cc1csc2ncnc(OCCc3ccc(Cl)cc3)c12 [Example 26, 4-(4-chlorophenethoxy)-5-methylthieno[2,3-d]pyrimidine]"
21,> 10,"CCOC(=O)CNc1ncnc2scc(-c3ccccc3)c12 [Example 300, Ethyl 2-(5-phenylthieno[2,3-d]pyrimidin-4-ylamino)acetate]"
22,> 10,"CCC(CO)Nc1ncnc2scc(C)c12 (centres unmarked) [Example 73, 2-({5-methylthieno[2,3-d]pyrimidin-4-yl}amino)butan-1-ol]"

row,EC50 [µM],SMILES
1,> 10,"Cc1csc2ncnc(NCc3cccc(Cl)c3)c12 [Example 129, N-[(3-chlorophenyl)methyl]-5-methylthieno[2,3-d]pyrimidin-4-amine]"
2,> 10,"Cc1csc2ncnc(N3CCC(N(C)C(=O)OC(C)(C)C)C3)c12 (centres unmarked) [Example 270, tert-butyl N-methyl-N-(1-{5-methylthieno[2,3-d]pyrimidin-4-yl}pyrrolidin-3-yl)carbamate]"
3,> 10,"Clc1ccc(CCNc2ccnc3sccc23)cc1 [Example 38, N-(4-chlorophenethyl)thieno[2,3-b]pyridin-4-amine]"
4,> 10,"Cc1csc2ncnc(NCCc3ccc(S(N)(=O)=O)cc3)c12 [Example 173, 4-[2-({5-methylthieno[2,3-d]pyrimidin-4-yl}amino)ethyl]benzene-1-sulfonamide]"
5,> 10,"Cc1csc2ncnc(NCC(C)c3ccccc3)c12 (centres unmarked) [Example 116, 5-methyl-N-(2-phenylpropyl)thieno[2,3-d]pyrimidin-4-amine]"
6,> 10,"Cc1csc2ncnc(NCCCN3CCOCC3)c12 [Example 136, 5-methyl-N-[3-(morpholin-4-yl)propyl]thieno[2,3-d]pyrimidin-4-amine]"
7,> 10,"Cc1csc2ncnc(N3CCSC3)c12 [Example 189, 3-{5-methylthieno[2,3-d]pyrimidin-4-yl}-1,3-thiazolidine]"
8,> 10,"CCc1cc2c(N3CCN(Cc4ccccc4)CC3)ncnc2s1 [Example 14, 4-(4-benzylpiperazin-1-yl)-6-ethylthieno[2,3-d]pyrimidine]"
9,> 10,"CCC(CO)Nc1ncnc2scc(C)c12 (centres unmarked) [Example 72, 2-({5-methylthieno[2,3-d]pyrimidin-4-yl}amino)butan-1-ol]"
10,> 10,"CCCCNc1ncnc2scc(-c3ccccc3)c12 [Example 47, N-butyl-5-phenylthieno[2,3-d]pyrimidin-4-amine]"
11,> 10,"Cc1csc2ncnc(NCc3ccccc3)c12 [Example 83, N-benzyl-5-methylthieno[2,3-d]pyrimidin-4-amine]"
12,> 10,"CCCCN(C)c1ncnc2scc(C)c12 [Example 187, N-butyl-N,5-dimethylthieno[2,3-d]pyrimidin-4-amine]"
13,> 10,"Cc1csc2ncnc(N(CCc3ccccc3)Cc3ccccc3)c12 [Example 277, N-benzyl-5-methyl-N-(2-phenylethyl)thieno[2,3-d]pyrimidin-4-amine]"
14,> 10,"Cc1csc2ncnc(N3CCN(CC4CCCCC4)CC3)c12 [Example 247, 1-(cyclohexylmethyl)-4-{5-methylthieno[2,3-d]pyrimidin-4-yl}piperazine]"
15,> 10,"Cc1csc2ncnc(NCCC(C)C)c12 [Example 69, 5-methyl-N-(3-methylbutyl)thieno[2,3-d]pyrimidin-4-amine]"
16,> 10,"Cc1csc2ncnc(NCC3CCc4cc(Cl)ccc43)c12 (centres unmarked) [Example 30, N-((5-chloro-2,3-dihydro-1H-inden-1-yl)methyl)-5-methylthieno[2,3-d]pyrimidin-4-amine]"
17,> 10,"Cc1ccc([C@H](C)Nc2ncnc3scc(C)c23)cc1 [Example 114, 5-methyl-N-[(1S)-1-(4-methylphenyl)ethyl]thieno[2,3-d]pyrimidin-4-amine]"
18,> 10,"Cc1csc2ncnc(NCc3ccco3)c12 [Example 75, N-(furan-2-ylmethyl)-5-methylthieno[2,3-d]pyrimidin-4-amine]"
19,> 10,"Cc1csc2nccc(NCCc3ccc(Cl)cc3)c12 [Example 36, N-(4-chlorophenethyl)-3-methylthieno[2,3-b]pyridin-4-amine]"
20,> 10,"Cc1csc2ncnc(NC(C)C(C)C)c12 (centres unmarked) [Example 68, 5-methyl-N-(3-methylbutan-2-yl)thieno[2,3-d]pyrimidin-4-amine]"
21,> 10,"CCOC(=O)CC(C)Nc1ncnc2scc(C)c12 (centres unmarked) [Example 110, ethyl 3-({5-methylthieno[2,3-d]pyrimidin-4-yl}amino)butanoate]"
